According to ChEMBL document CHEMBL1201862, “PubChem BioAssay data set” (2004):
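These data come from cells grown in 96-well plates and exposed to compound for 48 hours at five concentrations. The concentration for 50% growth inhibition is given as GI50.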 Activity calls are given as the source filed them. No stated cut-off is given here; in the data, active = GI50 up to about 1.1 µM and inactive = higher.

How the values were obtained:
Experiment in all cases: DTP human tumour cell line panel, 48 h
SK-MEL-2 = system: SK-MEL-2
Malme-3M = system: Malme-3M
HCC 2998 = system: HCC 2998
HCT-116 = system: HCT-116
NCI-H522 = system: NCI-H522
IGROV-1 = system: IGROV-1
SF-295 = system: SF-295
SK-MEL-5 = system: SK-MEL-5
TK-10 = system: TK-10
CCRF-CEM = system: CCRF-CEM
OVCAR-5 = system: OVCAR-5
U-251 = system: U-251
SK-MEL-28 = system: SK-MEL-28
MOLT-4 = system: MOLT-4
RPMI-8226 = system: RPMI-8226
A498 = system: A498

Measured: GI50

CCCCCCCCCCCCCCCC(=O)NCC(OCC)OCC
inactive: SK-MEL-2 > 100 µM | Malme-3M > 100 µM | HCC 2998 > 100 µM | HCT-116 > 100 µM | NCI-H522 > 100 µM | IGROV-1 > 100 µM | SF-295 > 100 µM | SK-MEL-5 > 100 µM | TK-10 > 100 µM | CCRF-CEM > 100 µM | OVCAR-5 > 100 µM | U-251 > 100 µM | SK-MEL-28 > 100 µM

N#C/N=C1\NC(Cc2ccccc2)C(=O)N1CCc1c[nH]c2ccccc12 (stereo not drawn)
inactive: HCC 2998 19.8 µM | HCT-116 20.6 µM | IGROV-1 31.8 µM | SF-295 32.4 µM | MOLT-4 18.4 µM | SK-MEL-5 17.8 µM | TK-10 26.6 µM | CCRF-CEM 25.5 µM | RPMI-8226 25.6 µM | SK-MEL-28 23.6 µM

CCOC(=O)c1nn2c(nc1=O)sc1ccc3ccccc3c12
inactive: SK-MEL-2 > 100 µM | Malme-3M > 100 µM | HCC 2998 > 100 µM | HCT-116 > 100 µM | IGROV-1 > 100 µM | SF-295 > 100 µM | MOLT-4 > 100 µM | SK-MEL-5 > 100 µM | TK-10 > 100 µM | CCRF-CEM 58.2 µM | RPMI-8226 > 100 µM | OVCAR-5 > 100 µM | U-251 > 100 µM | SK-MEL-28 > 100 µM

O=C(NC(=O)c1cc2cc(Br)cc(Br)c2oc1=O)Oc1ccccc1
inactive: Malme-3M > 100 µM | HCC 2998 > 100 µM | HCT-116 > 100 µM | IGROV-1 50.7 µM | SF-295 49.9 µM | MOLT-4 > 100 µM | SK-MEL-5 > 100 µM | TK-10 47.9 µM | CCRF-CEM > 100 µM | RPMI-8226 > 100 µM | OVCAR-5 > 100 µM | U-251 28.2 µM | SK-MEL-28 > 100 µM | A498 > 100 µM

COc1ccc(C2S/C(=C\c3ccccc3)C(=O)N2NC(=O)Cc2ccccc2)cc1 (stereo not drawn)
inactive: SK-MEL-2 > 100 µM | Malme-3M > 100 µM | HCT-116 > 100 µM | NCI-H522 > 100 µM | IGROV-1 > 100 µM | SF-295 > 100 µM | MOLT-4 > 100 µM | SK-MEL-5 > 100 µM | TK-10 > 100 µM | CCRF-CEM 49.3 µM | RPMI-8226 > 100 µM | OVCAR-5 > 100 µM | U-251 > 100 µM | SK-MEL-28 26.1 µM | A498 > 100 µM

Cc1cccc(C(C)(C)C)c1NC(=O)CC1C(=O)Nc2ccccc2S1(=O)=O (stereo not drawn)
inactive: SK-MEL-2 9.12 µM | Malme-3M 11.8 µM | HCC 2998 8.11 µM | HCT-116 10.4 µM | IGROV-1 9.33 µM | SF-295 7.1 µM | MOLT-4 2.28 µM | SK-MEL-5 12.1 µM | TK-10 20.5 µM | CCRF-CEM 2.34 µM | RPMI-8226 3.24 µM | OVCAR-5 13 µM | U-251 8.28 µM | SK-MEL-28 14.1 µM | A498 14.9 µM

COC(=O)[C@H]1COC(=S)N1C(=O)[C@@H](C)[C@H](O)C(C)C
inactive: SK-MEL-2 > 100 µM | Malme-3M > 100 µM | HCC 2998 > 100 µM | HCT-116 > 100 µM | IGROV-1 > 100 µM | SF-295 > 100 µM | MOLT-4 > 100 µM | SK-MEL-5 > 100 µM | TK-10 > 100 µM | CCRF-CEM > 100 µM | RPMI-8226 > 100 µM | OVCAR-5 > 100 µM | U-251 > 100 µM | SK-MEL-28 > 100 µM | A498 > 100 µM

COC(=O)C(C(=O)C(=O)Nc1ccc(N)cc1[N+](=O)[O-])c1nc2ccc(Cl)cc2nc1O (stereo not drawn)
inactive: SK-MEL-2 > 100 µM | Malme-3M > 100 µM | HCC 2998 > 100 µM | HCT-116 > 100 µM | IGROV-1 > 100 µM | SF-295 > 100 µM | MOLT-4 > 100 µM | SK-MEL-5 95.5 µM | TK-10 > 100 µM | CCRF-CEM 92.5 µM | RPMI-8226 > 100 µM | OVCAR-5 > 100 µM | SK-MEL-28 > 100 µM | A498 > 100 µM

C[C@]12CCc3nonc3C1CC[C@@H]1C2CC[C@]2(C)NC(=O)CCC12 (stereo partly drawn)
inactive: SK-MEL-2 > 100 µM | Malme-3M > 100 µM | HCT-116 > 100 µM | NCI-H522 > 100 µM | IGROV-1 > 100 µM | SF-295 > 100 µM | MOLT-4 > 100 µM | SK-MEL-5 > 100 µM | TK-10 > 100 µM | CCRF-CEM > 100 µM | RPMI-8226 > 100 µM | OVCAR-5 > 100 µM | U-251 > 100 µM | SK-MEL-28 > 100 µM | A498 > 100 µM

O=C(CC1Sc2ccccc2NC1=O)Nc1cc(Cl)ccc1Cl (stereo not drawn)
inactive: SK-MEL-2 > 100 µM | Malme-3M > 100 µM | HCC 2998 > 100 µM | HCT-116 > 100 µM | IGROV-1 > 100 µM | SF-295 > 100 µM | MOLT-4 29.8 µM | SK-MEL-5 > 100 µM | TK-10 > 100 µM | CCRF-CEM 31.2 µM | RPMI-8226 > 100 µM | OVCAR-5 > 100 µM | U-251 49.9 µM | SK-MEL-28 > 100 µM | A498 > 100 µM

COC(=O)C(c1n[nH]c2ccccc12)C(C(=O)OC)c1n[nH]c2ccccc12 (stereo not drawn)
inactive: Malme-3M 42.7 µM | HCC 2998 > 100 µM | HCT-116 41.4 µM | IGROV-1 > 100 µM | SF-295 > 100 µM | MOLT-4 22.7 µM | TK-10 > 100 µM | CCRF-CEM 24.5 µM | RPMI-8226 13.5 µM | OVCAR-5 > 100 µM | U-251 > 100 µM | SK-MEL-28 41.7 µM | A498 > 100 µM

Nc1ccc(C(c2ccccc2)(c2ccccc2)c2ccccc2)cc1
inactive: SK-MEL-2 > 100 µM | Malme-3M 30.8 µM | HCC 2998 > 100 µM | HCT-116 62.1 µM | IGROV-1 52.1 µM | SF-295 12.3 µM | MOLT-4 > 100 µM | SK-MEL-5 42.2 µM | TK-10 20.2 µM | CCRF-CEM 29.6 µM | RPMI-8226 39 µM | U-251 29.7 µM | SK-MEL-28 19.7 µM | A498 > 100 µM

O=C1c2ccccc2-c2ccccc2C(=O)C1(Br)Br
inactive: SK-MEL-2 9.75 µM | Malme-3M 3.93 µM | HCC 2998 18.2 µM | HCT-116 7.73 µM | NCI-H522 2.15 µM | IGROV-1 14 µM | SF-295 16.1 µM | MOLT-4 2.67 µM | SK-MEL-5 17.3 µM | TK-10 10.6 µM | CCRF-CEM 2.52 µM | RPMI-8226 1.84 µM | OVCAR-5 18.1 µM | U-251 15.8 µM | SK-MEL-28 7.28 µM | A498 16.6 µM

COc1ccc2c(c1)CN1CCc3c(cc(OC)c(OC)c3OC)C1C2 (stereo not drawn)
inactive: SK-MEL-2 > 100 µM | Malme-3M > 100 µM | HCC 2998 > 100 µM | HCT-116 > 100 µM | NCI-H522 > 100 µM | IGROV-1 > 100 µM | SF-295 > 100 µM | MOLT-4 63 µM | SK-MEL-5 36.5 µM | TK-10 > 100 µM | CCRF-CEM 74.6 µM | RPMI-8226 38.4 µM | OVCAR-5 64.1 µM | U-251 > 100 µM | SK-MEL-28 47.6 µM
